From US6582717B1, “Drug delivery composition and device” (Massachusetts Institute of Technology, priority 2000, dated 2003)

Experiment: Encapsulation efficiency of drug in PLGA / cyclodextrin delivery matrix
Assay type: physicochemical
[1] = PLGA and Hydroxy-propyl β-Cyclodextrin
[2] = PLGA and Methylated β-Cyclodextrin

Compound | Encapsulation Efficiency (%) (PGLA, no cyclodextrin) | Encapsulation Efficiency (amount encapsulated) (PGLA, no cyclodextrin) [µg] | Encapsulation Efficiency (%) [1] | Encapsulation Efficiency (amount encapsulated) [1] [µg] | Encapsulation Efficiency (%) [2] | Encapsulation Efficiency (amount encapsulated) [2] [µg]
[H]/N=C(\N/C(=N/[H])NCCCCCCNC(=N)NC(=N)Nc1ccc(Cl)cc1)Nc1ccc(Cl)cc1 [Chx, chlorhexidine] | (9.28%) | 185.7 | (15.1%) | 302.8 | (9.02%) | 180.5
N=C(NCCCCCCNC(=N)NC(=N)Nc1ccc(Cl)cc1)NC(=N)Nc1ccc(Cl)cc1.O=C(O)[C@H](O)[C@@H](O)[C@H](O)[C@H](O)CO.O=C(O)[C@H](O)[C@@H](O)[C@H](O)[C@H](O)CO [ChxDg, chlorhexidine digluconate] | (10.2%) | 204.7 | (6.1%) | 121.2 | (11.5%) | 230.3
